Assay results as given in patent publication US20030129250A1, “Particulate compositions for improving solubility of poorly soluble agents” (Advanced Inhalation Research Inc., priority 2001, published 2003).

Assay: Initial screening for poor solubility in aqueous media
Protocol: Many potential candidates were screened during this process. […] This list was then prioritized based on aqueous solubility, safety, and cost. […] This test was done by mixing […] of PBS and adding 10 mg of bulk drug. […] If the drug fully dissolved at this concentration, it was not considered for the testing.

[1] = PBS pH 7.4, 10 mg bulk drug in 0.3-1.0 L, criterion: no more soluble than 20 mg/L

Row | poor solubility screening in aqueous media (pH 7.4) | poor solubility screening in aqueous media [1] | SMILES
1 | passed the initial screening | – | COc1ccc(Cl)cc1C(=O)NCCc1ccc(S(=O)(=O)NC(=O)NC2CCCCC2)cc1 [glyburide, 1-[[p-[2-(5-chloro-o-anisamido)ethyl]phenyl]-sulfonyl]-3-cyclohexylurea]
2 | – | passed the initial screening | Cc1c(OCC(F)(F)F)ccnc1C[S+]([O-])c1nc2ccccc2[nH]1 (stereo not drawn) [lansoprazole]
3 | – | passed the initial screening | CN1C(C(=O)Nc2ccccn2)=C(O)c2ccccc2S1(=O)=O [piroxicam]
